Test results taken from US20020055470A1, “Circumvention of human tumor drug resistance” (CITY OF HOPE, priority 1987, published 2002).
Like-named read-outs stand apart in the source and are kept apart here. Each block holds one compound with its values, some of them ahead of it.

Experiments:
Assay type in all cases: cell-based, human
A2780S [1] = test: Inhibition of cell growth (cells counted on Coulter Counter after six days)
Method: The experiment was conducted in triplicate in the manner described with respect to Table I.
A2780 cells were well-plated (35 mm disnes) and 24 hours later the cells were treated with cisplatin for one hour, washed out and then treated with 6 concentrations of from 1 μM to 100 μM increased in equal increments of a nucleoside analog in saline. Cells were then washed and incubated for six days. The cells were counted on a Coulter Counter and the experiment was done in triplicate.
(§1) Table VI includes EC50 data further exemplifying the invention. The data reported by Table VI was obtained by substantially the same procedure as that described with respect to Table III. In Table VI, “(C)” indicates continuous exposure, “(1 h)” and “(2 h)” indicate exposure for 1 hour and 2 hours; “HU” indicates hydroxyurea.

A2780DDP [2] = test: as above
Method: The experiment was conducted in triplicate in the manner described with respect to Table I. […]
as §1

HCT8DDP = test: as above; settings: HCT8-DDP; (C) continuous exposure; read-out: EC50
Method: as §1

HCT8S = test: as above; settings: (C) continuous exposure, read-out: EC50
Method: as §1

HCF7S = test: Inhibition of cell growth, Table VI; settings: (C) continuous exposure
HCF-7 DDP = test: Inhibition of cell growth, Table VI; settings: HCF-7 DDP; (C) continuous exposure
Method: as §1

K562-araC = test: Inhibition of cell growth, Table VI; settings: K562-araC; (C) continuous exposure
Method: as §1

K562S = test: Inhibition of cell growth, Table VI; settings: (C) continuous exposure
Method: as §1

K562-DDP = test: Inhibition of cell growth, Table VI; settings: K562-DDP; (C) continuous exposure
K562-VP16 = test: Inhibition of cell growth, Table VI; settings: (C) continuous exposure
CEMS = test: Cytotoxicity by continuous exposure in CEM cells
Method: (§2) There was an increase in DHFR enzyme activity (11.07-fold) due to an eight-fold increase in DHFR gene amplification and expression in CEM/MTX cells. There was also a corresponding 2-fold increase in thymidine kinase (TK) enzyme activity and TK gene expression in CEM/MTX cells. […] CEM cells untreated with nucleoside analog were the controls (100%). The experiment was performed three separate times in duplicate.

CEMDDP = test: Cytotoxicity by continuous exposure in CEM cells
CEMMTX = test: Cytotoxicity by continuous exposure in CEM cells
Method: CEM cells were made 15.8-fold resistant to methotrexate (MTX) by weekly (2 hr) pulses and cloned in soft agar. The optimal growth requirements for the CEMS/S and CEM/MTX for folinic acid cells were 2 nM and 10 nM. If the cells were grown in higher concentrations of folinic acid (10^−7 M), both cell lines were correspondingly more resistant to MTX. In contrast, fluoropyrimidine cytotoxicity was enhanced in both cell lines with increasing concentrations of folinic acid from 10^−7 M to 10^−6 M. At concentrations of folinic acid that are not optimal for cell growth, both CEM cell lines are hypersensitive to fluoropyrimidines. In addition, CEM/MTX cells are more hypersensitive to fluoropyrimidines than CEM/S cells at (10^−8 M) folinic acid or lower concentrations.
as §2

A2780S [3] = test: Dual labeled (14C/3H) DNA synthesis and degradation in response to cisplatin; settings: for 3H-AZT/DNA A2780S: cisplatin 20 μM
Method: (§3) A dual labeled (^14C/^3H) experiment was designed to measure simultaneously DNA synthesis and degradation in response to cisplatin. […] A2780S cells respond to cisplatin with a modest degradation (10%) of (^14C) DNA over 3 hrs. In contrast, A2780DDP degradation 40.5% of the (^14C) DNA in 3 hrs. […] Transplatin at equimolar concentrations (20 μM) had no influence on DNA synthesis or degradation in A2780 cells.

A2780DDP [4] = test: Dual labeled (14C/3H) DNA synthesis and degradation in response to cisplatin; incorporation of labelled nucleoside analogs; settings: for Incorporation of labelled nucleoside analog into macromolecules: A2780DDP; for 3H-AZT/DNA A2780DDP: cisplatin 20 μM
Excerpt: A dual labeled (^14C/^3H) experiment was designed to measure simultaneously DNA synthesis and degradation in response to cisplatin.

A2780 cells = test: Dual labeled (14C/3H) DNA synthesis and degradation; settings: 20 μM
Method: as §3

EC50 (K562-araC): 70 µM | EC50 (K562S): 125 µM | EC50 (K562-DDP): 150 µM | EC50 (K562-VP16): 200 µM
SMILES: Cc1cn([C@H]2C[C@H](N=[N+]=[N-])[C@@H](CO)O2)c(=O)[nH]c1=O [AZT, 3′ azido-2′, 3′ dideoxythymidine]
EC50 (A2780S [1]; A2780S, (C) continuous exposure, read-out: EC50): 10 µM | EC50 (A2780S [1]; continuous exposure, proliferation during 6 days, mean + SD, read-out: EC50 A2780S): 10 µM | EC50 (A2780DDP [2]; A2780 DDP, (C) continuous exposure, read-out: EC50): 510 µM | EC50 (A2780DDP [2]; continuous exposure, proliferation during 6 days, mean + SD, read-out: EC50 A2780DDP): 510 µM | EC50 (HCT8DDP): 11 µM | EC50 (HCT8S): 5.5 µM | EC50 (HCF7S): 65 µM | EC50 (HCF-7 DDP): 10 µM | cytotoxicity (CEMS; CEM/S cells, continuous exposure up to 160 μM): minimal cytotoxicity | EC50 (CEMS; CEMS, continuous exposure): N.E.** | EC50 (CEMDDP): N.E.** | EC50 (CEMMTX; CEM/MTX cells, continuous exposure (1-160 μM)): 25 µM | increased incorporation of (3H) AZT into TCA material (A2780S [3]; A2780S, in response to cisplatin 20 μM): 18.8% | 3H-AZT/DNA A2780S (A2780S [3]; treatment time 0 min): 7.79 | 3H-AZT/DNA A2780S (A2780S [3]; treatment time 45 min): 6.27 | 3H-AZT/DNA A2780S (A2780S [3]; treatment time 90 min): 7.23 | 3H-AZT/DNA A2780S (A2780S [3]; treatment time 180 min): 9.25 | Incorporation of labelled nucleoside analog into macromolecules (A2780DDP [4]; 0 min after cisplatin (20 μM) treatment): 26.96 | Incorporation of labelled nucleoside analog into macromolecules (A2780DDP [4]; 45 min after cisplatin (20 μM) treatment): 31.62 | Incorporation of labelled nucleoside analog into macromolecules (A2780DDP [4]; 90 min after cisplatin (20 μM) treatment): 32.31 | Incorporation of labelled nucleoside analog into macromolecules (A2780DDP [4]; 180 min after cisplatin (20 μM) treatment): 37.96 | 3H-AZT/DNA A2780DDP (A2780DDP [4]; treatment time 0 min): 26.96 | 3H-AZT/DNA A2780DDP (A2780DDP [4]; treatment time 45 min): 31.62 | 3H-AZT/DNA A2780DDP (A2780DDP [4]; treatment time 90 min): 32.31 | 3H-AZT/DNA A2780DDP (A2780DDP [4]; treatment time 180 min): 37.96

SMILES: N.N.[Cl][Pt+2][Cl] [Transplatin]
influence on DNA synthesis or degradation (A2780 cells): no influence

SMILES: CN(Cc1cnc2nc(N)nc(N)c2n1)c1ccc(C(=O)N[C@@H](CCC(=O)O)C(=O)O)cc1 [methotrexate]
fold resistance of CEM/MTX cells (CEMMTX; CEM cells made resistant by weekly (2 hr) pulses): 15.8 fold
